Results: the NIST ThermoML archive (doi:10.1021/acs.jced.6b00121)

Test: xn = mol fraction of the nth substance listed
Details: 100 kPa, Liquid; for viscosity: Falling or rolling sphere viscometry; for mass density: Vibrating tube method

CCCCCCCCCCC [undecane] + CCCO
Details | mass density [kg/m3] | viscosity [mPa·s]
283.15 K, x1 = 0.1003 | 794.54 | 2.378
283.15 K, x1 = 0.2009 | 782.93 | 2.098
283.15 K, x1 = 0.3004 | 774.29 | 1.867
283.15 K, x1 = 0.3997 | 767.69 | 1.722
283.15 K, x1 = 0.4998 | 762.46 | 1.585
283.15 K, x1 = 0.6005 | 758.08 | 1.482
283.15 K, x1 = 0.6974 | 754.68 | 1.412
283.15 K, x1 = 0.8 | 751.72 | 1.371
283.15 K, x1 = 0.8963 | 749.45 | 1.356
283.15 K, x1 = 1 | 747.78 | 1.371
288.15 K, x1 = 0.1003 | 790.63 | 2.104
288.15 K, x1 = 0.2009 | 779.03 | 1.861
288.15 K, x1 = 0.3004 | 770.41 | 1.69
288.15 K, x1 = 0.3997 | 763.82 | 1.539
288.15 K, x1 = 0.4998 | 758.6 | 1.426
288.15 K, x1 = 0.6005 | 754.26 | 1.338
288.15 K, x1 = 0.6974 | 750.86 | 1.28
288.15 K, x1 = 0.8 | 747.96 | 1.246
288.15 K, x1 = 0.8963 | 745.71 | 1.235
288.15 K, x1 = 1 | 744.06 | 1.249
293.15 K, x1 = 0.1003 | 786.69 | 1.865
293.15 K, x1 = 0.2009 | 775.1 | 1.656
293.15 K, x1 = 0.3004 | 766.5 | 1.515
293.15 K, x1 = 0.3997 | 759.92 | 1.382
293.15 K, x1 = 0.4998 | 754.73 | 1.286
293.15 K, x1 = 0.6005 | 750.41 | 1.214
293.15 K, x1 = 0.6974 | 747.04 | 1.165
293.15 K, x1 = 0.8 | 744.17 | 1.138
293.15 K, x1 = 0.8963 | 741.96 | 1.13
293.15 K, x1 = 1 | 740.35 | 1.145
298.15 K, x1 = 0.1003 | 782.72 | 1.655
298.15 K, x1 = 0.2009 | 771.14 | 1.481
298.15 K, x1 = 0.3004 | 762.56 | 1.357
298.15 K, x1 = 0.3997 | 756 | 1.246
298.15 K, x1 = 0.4998 | 750.83 | 1.166
298.15 K, x1 = 0.6005 | 746.54 | 1.106
298.15 K, x1 = 0.6974 | 743.2 | 1.065
298.15 K, x1 = 0.8 | 740.37 | 1.044
298.15 K, x1 = 0.8963 | 738.2 | 1.038
298.15 K, x1 = 1 | 736.64 | 1.062
303.15 K, x1 = 0.1003 | 778.73 | 1.487
303.15 K, x1 = 0.2009 | 767.15 | 1.332
303.15 K, x1 = 0.3004 | 758.59 | 1.223
303.15 K, x1 = 0.3997 | 752.04 | 1.129
303.15 K, x1 = 0.4998 | 746.9 | 1.061
303.15 K, x1 = 0.6005 | 742.64 | 1.012
303.15 K, x1 = 0.6974 | 739.34 | 0.978
303.15 K, x1 = 0.8 | 736.55 | 0.961
303.15 K, x1 = 0.8963 | 734.41 | 0.957
303.15 K, x1 = 1 | 732.93 | 0.982
308.15 K, x1 = 0.1003 | 774.69 | 1.333
308.15 K, x1 = 0.2009 | 763.12 | 1.196
308.15 K, x1 = 0.3004 | 754.57 | 1.106
308.15 K, x1 = 0.3997 | 748.05 | 1.025
308.15 K, x1 = 0.4998 | 742.93 | 0.968
308.15 K, x1 = 0.6005 | 738.71 | 0.929
308.15 K, x1 = 0.6974 | 735.45 | 0.901
308.15 K, x1 = 0.8 | 732.7 | 0.886
308.15 K, x1 = 0.8963 | 730.61 | 0.885
308.15 K, x1 = 1 | 729.23 | 0.91
313.15 K, x1 = 0.1003 | 770.6 | 1.198
313.15 K, x1 = 0.2009 | 759.04 | 1.08
313.15 K, x1 = 0.3004 | 750.52 | 1.004
313.15 K, x1 = 0.3997 | 744.02 | 0.935
313.15 K, x1 = 0.4998 | 738.93 | 0.888
313.15 K, x1 = 0.6005 | 734.75 | 0.855
313.15 K, x1 = 0.6974 | 731.52 | 0.833
313.15 K, x1 = 0.8 | 728.83 | 0.821
313.15 K, x1 = 0.8963 | 726.79 | 0.822
313.15 K, x1 = 1 | 725.53 | 0.847
318.15 K, x1 = 0.1003 | 766.466 | 1.079
318.15 K, x1 = 0.2009 | 754.911 | 0.979
318.15 K, x1 = 0.3004 | 746.411 | 0.913
318.15 K, x1 = 0.3997 | 739.944 | 0.856
318.15 K, x1 = 0.4998 | 734.891 | 0.816
318.15 K, x1 = 0.6005 | 730.749 | 0.789
318.15 K, x1 = 0.6974 | 727.572 | 0.772
318.15 K, x1 = 0.8 | 724.934 | 0.763
318.15 K, x1 = 0.8963 | 722.953 | 0.765
318.15 K, x1 = 1 | 721.818 | 0.79
323.15 K, x1 = 0.1003 | – | 0.976
323.15 K, x1 = 0.2009 | – | 0.889
323.15 K, x1 = 0.3004 | – | 0.828
323.15 K, x1 = 0.3997 | – | 0.786
323.15 K, x1 = 0.4998 | – | 0.754
323.15 K, x1 = 0.6005 | – | 0.732
323.15 K, x1 = 0.6974 | – | 0.717
323.15 K, x1 = 0.8 | – | 0.712
323.15 K, x1 = 0.8963 | – | 0.715
323.15 K, x1 = 1 | – | 0.74
